Source: patent publication US12171821B2, “Toxoplasma gondii vaccine” (priority 2018, dated 2024)
Values joined by “and” are separate entries in the source; they are usually repeats but may differ in a detail not shown here. Equal values may be shown once.

Tested on: T. gondii
Experiment: Real-time PCR (SAG1) on gDNA of mouse fecal samples
Format: in vivo, Toxoplasma gondii
Settings: gDNA of mouse fecal samples
Method: Delta-6-desaturase inhibition. SC 26196 (Cayman) was solubilized in DMSO and used at 20 μM in mouse organoid monolayers. For in vivo treatment, the inhibitor was solubilized in 0.5% m/v methylcellulose and the mice were given 50 mg/kg every 12 hours by oral gavage (He et al., 2012). 4-week old C57BL/6J female mice deleted in Z-DNA-binding protein (Pittman et al., 2016) were divided into four different groups: uninfected control, T. gondii-infected without fatty acid supplementation, T. gondii infected with linoleic acid supplementation, and T. gondii-infected with linoleic acid and SC 26196 inhibitor. Each mouse supplemented with linoleic acid received 10 μL of 99% linoleic acid oil (MilliporaSigma Cat #843483) suspended in 0.5% Methylcellulose per day by oral gavage. Mice were infected with 1000 brain cysts purified as described above by oral gavage and euthanized 7 days post infection. Sample size was at least 2 mice per group and the experiment was repeated 5 times. Alternatively, each mouse was infected with one mouse brain at least 2 months postinfection with at least 1000 cysts. Mice were treated with SC 26196 until day 5 postinfection. Feces were collected from days 5-14 and oocysts enumerated by microscopy.
Real-time PCR on fecal samples. […] A standard curve was generated using a dilution series of 101-105 parasites per well amplified using the SAG1 primer set described above, based on a gDNA sample with known parasite quantity. […]
[formula] […] The calculated copy numbers of each sample were normalized based on the ng of nucleic acid used as PCR template. […]
Statistical methods. […] The difference between the mean target gene copy numbers was analyzed by two-tailed unpaired t tests. […] The difference between the mean relative expression of each target gene was analyzed by two-tailed unpaired t tests.

`CCCCC/C=C\C/C=C\CCCCCCCC(=O)O` [linoleic acid] was tested, and the “SAG1 Ct mean” value was 35.84 and the “SAG1 raw Ct values” (wells 1-3) was 37.02 and 36.43 and 34.08.
